Results published in patent US8002740B2, “Devices for maintaining patency of surgically created channels in tissue” (Broncus Technologies, Inc., priority 2003, dated 2011).

Settings: polymer system of polydimethylsiloxane vinyl terminated at various viscosity and a range of platinum-mono, di, tri and/or tetramethyldisiloxane complex
Text: The composition for the example may be as follow: polymer part: polydimethylsiloxane, vinyldimethyl terminated, any viscosity; and/or polydimethylsiloxane, vinylmonomethyl terminated, any viscosity. The cross-linker part: polydimethylsiloxane, any viscosity; and or polymonomethylsiloxane, any viscosity. Platinum catalyst part and/or cross-linker part: platinum; and/or platinum-divinyltetramethyldisiloxane complex in xylene, 2-3% Pt; and/or platinum-divinyltetramethyldisiloxane complex in vinyl terminated polydimethylsiloxane, 2-3% Pt; and/or platinum-divinyltetramethyldisiloxane complex in vinyl terminated polydimethylsiloxane, ˜1% Pt; platinum-Cyclovinylmethylsiloxane complex, 2-3% Pt in cyclic vinyl methyl siloxane.
These components may be combined in different ratios to make the polymer. […] The amount of vinyl siloxane cross-linker may determine the rate of the drug release and diffusivity of the polymer to the drug.

release profile: acceptable
SMILES: CC(=O)O[C@H]1C(=O)[C@@]2(C)[C@H]([C@H](OC(=O)c3ccccc3)[C@]3(O)C[C@H](OC(=O)[C@H](O)[C@@H](NC(=O)c4ccccc4)c4ccccc4)C(C)=C1C3(C)C)[C@]1(OC(C)=O)CO[C@@H]1C[C@@H]2O [paclitaxel]
